As a reminder, the inhibition is the relative decrease from the control value, in per cent.

The source of these data is publication PMC12714101, “CD160-Derived Peptide as a Bidirectional Inhibitor Toward Immune Checkpoints BTLA/HVEM and HVEM/LIGHT” (Journal of Medicinal Chemistry, 2025).

Where a SMILES comes first, the peptide text is derived from it.

In one data set the target is T1, BTLA/HVEM complex (Homo sapiens, UniProt Q92956).
T1 construct: purchased ACROBiosystems HVM-H52E9 (HVEM-His); BTA-H5255 (BTLA-Fc)
T1 sequence (Q92956 39-202 limits assumed): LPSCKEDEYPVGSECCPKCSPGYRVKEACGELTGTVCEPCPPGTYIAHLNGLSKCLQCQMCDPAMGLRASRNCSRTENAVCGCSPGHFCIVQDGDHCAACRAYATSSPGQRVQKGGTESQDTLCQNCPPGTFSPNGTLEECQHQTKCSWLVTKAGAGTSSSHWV
Put plainly: ELISA inhibition of BTLA/HVEM complex formation. Format: biochemical. To be noted: immobilized HVEM-His, BTLA-Fc 5 μg/mL, PBS-T, 37 °C, mean of three independent experiments; for inhibition at 16.67 µM: peptide 16.67 μM; for inhibition at 50 µM: peptide 50 μM; for inhibition at 150 µM: peptide 150 μM. As to the method:
In the subsequent stage of the study, the potential of the obtained compounds to inhibit the interaction between BTLA and HVEM proteins was evaluated using ELISA, following the methodology described in our previous studies. , HVEM was immobilized on the plate and incubated with peptides at three different concentrations, followed by the addition of Fc-tagged BTLA. Detection was carried out using horseradish peroxidase (HRP) conjugated with anti-human IgG and 3,3′,5,5′-tetramethylbenzidine (TMB) as a substrate. Signal intensity was directly proportional to the amount of BTLA bound to HVEM and inversely proportional to the inhibitory activity of the tested peptides. As a control, BTLA and HVEM were incubated in the absence of peptides.
Recombinant human HVEM protein with a His tag was purchased from ACROBiosystems, Newark, DE, USA (no. HVM-H52E9). Recombinant human protein BTLA-Fc and LIGHT-Fc were also purchased from ACROBiosystems, Newark, DE, USA (no. BTA-H5255 and no. LIT-H5269).
ELISA was performed using transparent 96-well NUNC Maxisorp plates (Thermo Fisher Scientific, Waltham, MA, USA). In the first step, HVEM-His, dissolved in PBS at a concentration of 5 μg/mL (100 μL/well), was immobilized on the plate by overnight incubation at 4 °C. Wells were then blocked with 5% bovine serum albumin (BSA) in PBS containing 0.05% Tween 20 (PBS-T) (200 μL/well). Next, peptides dissolved in PBS-T at concentrations of 150, 50, and 16.67 μM were added to the wells (100 μL/well). Following this, BTLA-Fc in PBS-T at a concentration of 5 μg/mL (100 μL/well) was applied. In the next step, goat anti-human IgG antibody conjugated with the HRP (Bio-Rad Laboratories, Hercules, CA, USA) in PBS-T at a ratio of 1:30,000 (v/v) was added (100 μL/well). Colorimetric detection was performed by adding 100 μL of TMB substrate (Thermo Fisher Scientific, Waltham, MA, USA) to each well and incubating the plate in the dark. At each stage, plates were incubated at 37 °C with continuous shaking for 1 h (except TMB, which was incubated for 15 min). After each incubation, wells were washed five times with PBS-T. Absorbance was measured using an Infinite M200 Pro Reader (Tecan Group Ltd., Männedorf, Switzerland) at wavelengths of 650 nm (measurement wavelength) and 492 nm (reference wavelength). Inhibition assays for the HVEM/LIGHT complex were conducted using the same approach, except that LIGHT was used instead of BTLA. The BTLA/HVEM and HVEM/LIGHT complexes without peptides served as controls. Inhibition percentages were calculated based on the assumption that PBS-T has no effect on the formation of BTLA/HVEM or HVEM/LIGHT complexes. Each ELISA was conducted in at least three independent replicates. The data were analyzed using GraphPad Prism 8 software (San Diego, CA, USA).

The next data set has as its system Jurkat E6.1 cells. To be noted: 150 µM. The procedure:
(§1) Before conducting cellular assays, the effects of the peptides on cell viability in Jurkat E6.1 and T cell stimulator (TCS) cell lines, as well as their stability in cell culture supernatant, were evaluated. Jurkat E6.1 cells are human T cell acute lymphoblastic leukemia cells, while TCS is a modified murine thymoma cell line (BW5147). The cellular platforms described below are based on these cells. […] The stability of the peptides in supernatant collected from cells after 24 h of incubation was also assessed.
(§2) Comparison of the binding affinity obtained from SpS and MM-GBSA
(§3) Table S3. Experimental and theoretical binding affinities for the BTLA/HVEM and HVEM/peptide complexes. Experimental Kd values obtained from SpS were used to calculate the corresponding ΔG, while theoretical ΔG values were obtained from MM-GBSA analysis. protein/protein ΔG ΔG obtained from or K [µmol] SD calculated SD MM-GBSA SD
(§4) The cytotoxicity of the peptides against two cell lines, Jurkat E6.1 and TCS, was examined. To estimate the number of viable cells, the CellTiter-Glo® luminescence-based assay

For data set [1], the system named is T cell stimulator (TCS) cell line (BW5147). Conditions: 150 µM. The procedure:
as §1, §2, §3, §4

The subject of another data set is BTLA/HVEM interaction. Put plainly: Cellular reporter assay, HVEM reporter cells (JE6.1-NF-κB::eGFP) stimulated with TCS-BTLA. The format is cell-based, human. Conditions: 30 min preincubation, 24 h coculture, NF-κB::eGFP by flow cytometry, mean of four independent experiments in duplicate; for Inhibition - Cellular assay 16.67 µM: peptide 16.67 μM; for Inhibition - Cellular assay 50 µM: peptide 50 μM; for Inhibition - Cellular assay 150 µM: peptide 150 μM. The procedure: In the next step of the study, the inhibitory properties of the designed peptides were evaluated using previously described cell-based assays. The experiment utilized reporter cells expressing HVEM (JE6.1-NF-κB::eGFP) and T cell stimulator cells expressing BTLA (TCS-BTLA). Activation of the reporter cells by TCS followed a two-signal model. The first is generated through the interaction between the T cell receptor–cluster of differentiation 3 (TCR–CD3) complex on the surface of the reporter cells and a membrane-bound antihuman CD3 single-chain antibody fragment (mAb aCD3) expressed on the TCS cells. The second signal is provided by the binding of HVEM and BTLA, which in this assay results in a strong costimulatory signal via HVEM. Activation of the reporter cells leads to the expression of nuclear factor kappa light chain enhancer of activated B cells (NF-κB), which correlates with the level of enhanced green fluorescent protein (eGFP), measured by flow cytometry. In the absence of peptides, NF-κB expression is normalized to 100%. Disruption of the BTLA/HVEM interaction by peptides results in a concentration-dependent decrease in NF-κB levels. In this study, HVEM-expressing reporter cells were stimulated with BTLA-expressing TCS cells in the presence or absence of tested peptides at three different concentrations.
Cellular studies were performed in the same procedure as we described previously for gD- and BTLA-derived peptides. , The peptides were dissolved in the medium, and their final concentrations in wells were 150, 50, and 16,7 μM. Briefly, reporter cells expressing HVEM (JE6.1-NF-κB::eGFP) (5 × 10^4 cells/well) were preincubated with peptides for 30 min in a 96-well flat-bottom plate. Subsequently, the second cell line expressing BTLA (TCS BTLA) or LIGHT (TCS LIGHT) (2 × 10^4 cells/well) was added and cocultured for 24 h at 37 °C in an atmosphere of 5% CO2. Next, an APC-conjugated mCD45.2 antibody to exclude TCS from the reporter cells was added. The expression of the reporter gene (eGFP) was measured via flow cytometry using a CytoFLEX flow cytometer (Beckman Coulter Inc., Brea, CA, USA), and the results were analyzed using FlowJo v10.10 (FlowJo LLC, Ashland, OR, USA). The data were analyzed using GraphPad Prism 8 software (San Diego, CA, USA).
(Reporter assays use an easily measured gene product as a stand-in for the process of interest.)

Consider `CC[C@@H]1NC(=O)[C@H](CC(C)C)NC(=O)[C@H](Cc2ccccc2)NC(=O)[C@H](C(C)C)NC(=O)[C@@H](NC(=O)[C@H](Cc2ccccc2)NC(C)=O)CSSC[C@@H](C(=O)N[C@@H](CC(C)C)C(N)=O)NC(=O)[C@H](CC(C)C)NC(=O)[C@H](CCC(N)=O)NC(=O)[C@H](CCCCN)NC(=O)[C@H](CC(C)C)NC(=O)[C@H](CO)NC(=O)[C@H]([C@@H](C)O)NC(=O)[C@H](CCC(=O)O)NC(=O)[C@@H]2CCCN2C(=O)[C@H](CO)NC(=O)[C@H](CC)NC(=O)[C@H](CC(=O)O)NC(=O)CNC(=O)[C@H](CO)NC(=O)[C@H](CCCNC(=N)N)NC(=O)[C@H](CC(=O)O)NC(=O)[C@H](CCCCN)NC1=O` [B2, CD160(56–79)^(V57C,C61X,C68X,R78C)] (HELM PEPTIDE1{[ac].F.C.V.F.L.[Abu].K.D.R.S.G.D.[Abu].S.P.E.T.S.L.K.Q.L.C.L.[am]}$PEPTIDE1,PEPTIDE1,3:R3-24:R3$$$V2.0), for which, on BTLA/HVEM complex, the inhibition at 16.67 µM is -3.89% and the inhibition at 50 µM is -2.56%. In addition, the “Cell viability, Jurkat E6.1” value in the data set on Jurkat E6.1 cells is listed as 47%. Moreover, the “Cell viability, TCS” value in data set [1] was 9%.

On to `CC(=O)N[C@@H](Cc1ccccc1)C(=O)N[C@H](C(=O)N[C@H](C(=O)N[C@@H](Cc1ccccc1)C(=O)N[C@@H](CC(C)C)C(=O)N[C@H]1CSSC[C@@H](C(=O)N[C@@H](CO)C(=O)N2CCC[C@H]2C(=O)N[C@@H](CCC(=O)O)C(=O)N[C@H](C(=O)N[C@@H](CO)C(=O)N[C@@H](CC(C)C)C(=O)N[C@@H](CCCCN)C(=O)N[C@@H](CCC(N)=O)C(=O)N[C@@H](CC(C)C)C(=O)N[C@@H](CCCNC(=N)N)C(=O)N[C@@H](CC(C)C)C(N)=O)[C@@H](C)O)NC(=O)[C@H](CC(=O)O)NC(=O)CNC(=O)[C@H](CO)NC(=O)[C@H](CCCNC(=N)N)NC(=O)[C@H](CC(=O)O)NC(=O)[C@H](CCCCN)NC1=O)C(C)C)C(C)C` [B5, CD160(56–79)] (HELM PEPTIDE1{[ac].F.V.V.F.L.C.K.D.R.S.G.D.C.S.P.E.T.S.L.K.Q.L.R.L.[am]}$PEPTIDE1,PEPTIDE1,7:R3-14:R3$$$V2.0), for which, in the data set with BTLA/HVEM interaction, the “Inhibition - Cellular assay 16.67 µM” value was found to be 12.02%, the “Inhibition - Cellular assay 50 µM” value was 12.02% and the “Inhibition - Cellular assay 150 µM” value was found to be 2.50%. At BTLA/HVEM complex, the inhibition at 16.67 µM was -7.56%, the inhibition at 50 µM is -7.13% and the inhibition at 150 µM was -4.6%. In addition, in the data set with Jurkat E6.1 cells, the “Cell viability, Jurkat E6.1” value worked out at 75%.

Regarding `CC[C@@H]1NC(=O)[C@@H](NC(=O)[C@H](Cc2ccccc2)NC(C)=O)CSSC[C@@H](C(=O)N[C@@H](CCCCN)C(N)=O)NC(=O)[C@H](CO)NC(=O)[C@H]([C@@H](C)O)NC(=O)[C@H](CCC(=O)O)NC(=O)[C@@H]2CCCN2C(=O)[C@H](CO)NC(=O)[C@H](CC)NC(=O)[C@H](CC(=O)O)NC(=O)CNC(=O)[C@H](CO)NC(=O)[C@H](CCCNC(=N)N)NC(=O)[C@H](CC(=O)O)NC(=O)[C@H](CCCCN)NC1=O` [C2, CD160(59–75)^(L60C,C61X,L74C)] (HELM PEPTIDE1{[ac].F.C.[Abu].K.D.R.S.G.D.[Abu].S.P.E.T.S.C.K.[am]}$PEPTIDE1,PEPTIDE1,3:R3-17:R3$$$V2.0), on BTLA/HVEM complex, the inhibition at 16.67 µM was -0.94%, the inhibition at 50 µM is 1% and the inhibition at 150 µM worked out at 0.77%.

Consider `CC(=O)N[C@@H](Cc1ccccc1)C(=O)N[C@@H](CC(C)C)C(=O)N[C@H]1CSSC[C@@H](C(=O)N[C@@H](CO)C(=O)N2CCC[C@H]2C(=O)N[C@@H](CCC(=O)O)C(=O)N[C@H](C(=O)N[C@@H](CO)C(=O)N[C@@H](CC(C)C)C(=O)N[C@@H](CCCCN)C(N)=O)[C@@H](C)O)NC(=O)[C@H](CC(=O)O)NC(=O)CNC(=O)[C@H](CO)NC(=O)[C@H](CCCNC(=N)N)NC(=O)[C@H](CC(=O)O)NC(=O)[C@H](CCCCN)NC1=O` [C3, CD160(59–75)] (HELM PEPTIDE1{[ac].F.L.C.K.D.R.S.G.D.C.S.P.E.T.S.L.K.[am]}$PEPTIDE1,PEPTIDE1,4:R3-11:R3$$$V2.0), for which, in the data set with BTLA/HVEM interaction, the “Inhibition - Cellular assay 16.67 µM” value is given as 5.70%, the “Inhibition - Cellular assay 50 µM” value is on record as 4.25% and the “Inhibition - Cellular assay 150 µM” value was determined as 4.78%. Also, at BTLA/HVEM complex, the inhibition at 16.67 µM is 1.86%, the inhibition at 50 µM is 2.02% and the inhibition at 150 µM worked out at 0.4%.
